# Patent US10913774B2, “Cyclic peptide binder against oncogenic K-Ras” (California Institute of Technology, priority 2015, dated 2021)
# “Also recorded” adds a separate entry of the source.
# Experiments:
# K-Ras G12D [1] = molecular target: T1, K-Ras G12D (Homo sapiens, UniProt P01116, G12D); assay: ELISA binding assay of biotinylated cyclic peptides to K-Ras G12D
# Protocol: For ELISA assays, 1 μM of the biotinylated hit peptides were first immobilized onto Neutravidin ELISA plates (Pierce) for 2 hours at room temperature in binding buffer (TBST with 0.1% BSA). […] After washing three times with TBST the plate was then treated with a 1:1000 dilution of the anti-RAS rabbit mAb (Cell Signaling Technology) in binding buffer for thirty minutes, washed three times with TBST, incubated with anti-Rabbit-HRP secondary antibody (Cell Signaling Technology) for thirty minutes and developed with TMB substrate (KPL) for five to ten minutes. The absorbance of samples at 450 nm wavelength was measured using a spectrophotometer.
# K-Ras G12D [2] = molecular target: T1, K-Ras G12D; assay: Western blot of K-Ras G12D protein levels in Panc 08.13 cancer cells after peptide treatment; type: cell-based; conditions: Panc 08.13 cells (homozygous K-Ras G12D), 30 minutes treatment, 0.3 mM
# Source text: Example 5. Degradation of K-Ras G12D using Cyclic Peptides. […] Proteolysis-targeting chimeras (PROTACs) using Hif and other proteins are described in Toure and Crews, 2016, Angew. Chem. Int. Ed, 55:2-10, the entire contents of which are incorporated herein by reference. The 7b-Hif PROTAC was further conjugated with the HIV-TAT cell-penetrating peptide […] (SEQ ID NO: 24).
# Cell culture. Panc 08.13 cell lines were purchased from American Type Culture collection and cultured as specified by the provider.
# Immunoblotting. Western blots were performed according to standard protocols. Briefly, cells were lysed with cell lysis buffer (Cell Signaling Technology) containing protease and phosphatase inhibitors (Cell Signaling Technology). Cell lysates were quantified with a Bradford protein assay (Thermo Scientific) and prepared for gel electrophoresis in Laemmli sample buffer and reducing agent. 20 μg of cell lysate were added to precast polyacrylamide gels (Bio-Rad) and proteins were separated by electrophoresis followed by transfer to PVDF membrane. Membranes were then blocked and probed with an anti-Ras or anti-Tubulin primary antibody followed by horseradish peroxidase-conjugated secondary antibody (Cell Signaling Technology). The bands were visualized by chemiluminescence (Thermo Scientific).
Compound,"binding to K-Ras G12D in ELISA (absorbance units), result in words (K-Ras G12D [1])",levels of K-Ras G12D protein by Western blot (K-Ras G12D [2])
"CC(C)C[C@@H]1NC(=O)[C@@H](N)Cc2cn(nn2)CCCC[C@@H](C(=O)NCCCOCCOCCOCCCNC(=O)CCCC[C@@H]2SC[C@@H]3NC(=O)N[C@@H]32)NC(=O)[C@H](CCCNC(=N)N)NC(=O)[C@H](CC(=O)O)NC(=O)CNC(=O)[C@H](CCCNC(=N)N)NC1=O [7b, Pra-LRGDR-Az4-PEG-Biotin]",strongest binding fluorescence; also recorded: highest affinity,–
"CC(C)C[C@@H]1NC(=O)[C@@H](N)Cc2cn(nn2)CCCC[C@@H](C(=O)NCCCOCCOCCOCCCNC(=O)CCCC[C@@H]2SC[C@@H]3NC(=O)N[C@@H]32)NC(=O)[C@H](CCCNC(=N)N)NC(=O)[C@@H]2CCCN2C(=O)CNC(=O)[C@H](CCCNC(=N)N)NC1=O [7b5, Pra-LRGPR-Az4-PEG-Biotin]",–,induce proteasomal degradation of K-Ras G12D
